Measurements published in US6534515B2, “20,21-dinor-eburnamenines” (Aventis Pharma S.A., priority 1989, dated 2003).

How the values were obtained:
[1] = tested on: adrenergic alpha2 receptors; test: Affinity for the adrenergic alpha 2 receptors (3H rauwolscine displacement, rat cortex membranes); format: binding; conditions: rat brain cortex membranes, 3H rauwolscine 0.15 nM, 45 minutes at 25° C.; CD/CX = concentrations of phentolamine/product inhibiting 50% of specific fixation
Protocol: 1) Affinity for the Adrenergic Alpha 2 Receptors:
10 cortices removed from the brains of male rats weighing an average of 150 g were homogenized in 90 ml of 0.32 M sucrose. After centrifuging 1000 g of the homogenized mixture, for 10 minutes at 0° C.+4° C., the deposit was suspended in 240 ml of 50 mM Tris HCl pH 7.7 buffer, and centrifuged at 30,000 g for 15 minutes at 0°+4° C. The new deposit was suspended in 480 ml of 50 mM NaKPO4 pH 7.4 buffer. Then, 2 ml of suspension were incubated for 45 minutes at 25° C. in the presence of ^3H rauwolscine at a concentration of 0.15 nM:
I) alone or II) with increasing concentrations of the product under test or, III) to determine the non-specific fixation with non-radioactive phentolamine at a concentration of 10^−5M.
The incubated suspensionis were filtered on Whatman GF/C and the filters were washed three times with 5 ml of NaKPO4 pH 7.4 buffer at 0° C. The ratioactivity of the filters was measured by liquid scintillation. The affinity of the product tested for the adrenergic alpha2 receptors was determined relative to phentolamine as reference product.
CD=concentration of phentolamine inhibiting 50% of the specific fixation of ^3H rauwolscine,
CX=concentration of the product under test inhibiting 50% of the specific fixation of ^3H rauwolscine.
The relative affinity was calculated by the relation: […]

[2] = tested on: male mice of CD1 CHARLES RIVER type; test: Hypobaric anoxia survival time in mice; format: in vivo; conditions: intra-peritoneally 10 mg/kg, 60 minutes before the test, pressure drop of 630 mm Hg, relative to control animals
Protocol: Male mice of CD1 CHARLES RIVER type weighing 20 to 25 grams having gone without food for 6 hours were placed in a 2-liter chamber in which a pressure drop of 630 mm Hg was carried out according to the following kinetics:
The survival time was measured from the time TO and over a maximum time of 3 minutes and it was about 70 seconds for the control animals. The rectal temperature was measured immediately before the determination of the survival time. The products were administered intra-peritoneally at a dose of 10 mg/kg and in a volume of 10 ml/kg 60 minutes before the test and the control animals received the vehicle. The results were determined as a percentage of increase in the survival time relative to the control animals.

Compound	ARL (relative affinity, from CD and CX, relative to phentolamine as reference product) [1]	% increase in survival time [2]
CC1=Cn2c3c(c4ccccc42)CCN2CCCC1C32 (stereo not drawn) [Example 7, (3-α)-15-methyl-20,21-dinoreburnameinine]	980	
[16α, (±)-20,21-dinoreburnamenin-15-methanol [Example 13]	346	11%
[16α, (±)]-15-(1-propynyl)-20,21-dinoreburnamenine [Example 2]	367	
[16α, (±)]-N,N-dimethyl-20,21dinoreburnamenin-15-methanamine [Example 14]		12%
Ethyl [16α, (±)]-20,21-dinoreburnamenine-15-acetate [Example 12]	942	
[16α, (±)]-14,15-dihydro-15-methylene-20,21-dinorburnamenine [Example 11]	343	
[16α, (±)]-15-methyl-20,21-dinoreburnamenine [Example 5]	456	34%
